Data taken from publication PMC5650372 (Oncotarget, 2017).

How the values were obtained:
NHEJ activity = test: Reconstituted cell-free NHEJ assay (MCF7 nuclear extract); assay type: biochemical, human
Description: MCF7 human breast cancer cells (5-10 x 10^7 each) were incubated in 5 pellet volumes of cold hypotonic buffer (10 mM Hepes-KOH, pH 7.5, 1.5 mM MgCl2, 5 mM KCl, and 0.5 mM DTT) for 20 minutes and were homogenized in a tight-fitting glass dounce homogenizer for 10-20 strokes. The nuclei were then collected by low-speed centrifugation and nuclear proteins were extracted by high-salt buffer (50 mM Tris-HCl, pH 7.5, 1 M KCl, 2 mM EDTA, 1 mM DTT, and protease inhibitors). The extracted nuclear proteins were dialyzed against 1 L of dialysis buffer (20 mM Tris-HCl, pH 8.0, 20% glycerol, 0.1 M KOAc, 0.5 mM EDTA, and 1 mM DTT) for 1 hour and were used for the in vitro NHEJ assay.
Nuclear protein (10-20 μg) prepared above was pre-treated with compounds as indicated on ice for 15 minutes. Twenty-five nanograms of EcoRI-digested pBluescript DNA (Stratagene, La Jolla, CA) were then added and the mixture was adjusted to 20 μL final volume in NHEJ buffer (50 mM Hepes-KOH pH 8.0, 40 mM KOAc, 1 mM Mg(OAc)2, 1 mM ATP, 0.1 mg/mL BSA, and 1 mM DTT). After incubation at 25°C for 60 minutes, the reaction was terminated by incubation with 1 μg/mL RNase A for 10 minutes followed by treatment with 2 mg/mL Protease K in 0.5% SDS at 55°C for 30 minutes. The reactions were run onto 0.8% agarose and the gel was stained with Sybr Green (S756, Invitrogen, Carlsbad, CA). For Western blots, an aliquot of the same reaction mixture described above was subjected to SDS-PAGE, transferred to the PVDF membrane, and immunoblotted with indicated antibodies.

NHEJ in Cal-51 cells = test: 384-well image-based cellular NHEJ assay; assay type: cell-based; conditions: Homo sapiens; Cal-51, n=3
From the text: (§1) ATM and ATR assay and IC50 determination Cellular NHEJ assay
(§2) HA-ATM and FLAG-ATR (HA-labeled ATM, and The experimental design is illustrated in FLAG-labeled ATR) were each transiently expressed in Supplementary Figure 4. Cal-51 breast cancer cells HEK293 cells (293FT cells, Invitrogen Cat: R700-07) were separately transfected with pEGFP plasmid (6085-using Lipofectamine as transfection reagent. Cells were 1, Clontech, Mountain View, CA) digested with either harvested 6 days post transfection and spun down to EcoRI (to measure NHEJ) or StuI (to measure transfection separate cells from media. Cells were then lysed using a efficiency) using a Amaxa cell line nuclearfector kit V lysis buffer (50 mM Tris buffer, (Tris(hydroxylmethyl)- (CCA-1003, Lonza). Immediately after the transfection, aminomethane, pH 7.5), 100 mM NaCl, 50 mM βGOP, the cells were treated with DMSO or compounds at 10% Glycerol, 0.5% Tween 20, 1 mM EDTA, 25 mM indicated concentrations for 24 hours and GFP-positive sodium fluoride (NaF), 20 nM microcystine, 2 mM cells were counted under a fluorescent microscope. NHEJ phenylmethylsulfonylfluoride (PMSF) and protease activity was calculated by the number of GFP-positive inhibitor cocktail) followed by sonication 3 times and a cells in cells transfected with pEGFP-EcoRI divided by final spin at 20,000 rpm for 30 minutes to generate a clear that in cells transfected with pEGFP-StuI, multiplied by lysate. To perform the immunoprecipitation, enzymes were 100. […]
(§3) or FLAG tags. Beads plus enzymes were then washed 3 developed. Different cell lines were transfected using times with lysis buffer and spun down at 1000 rpm for the procedure described above and subsequently seeded 1 minute. Beads plus enzymes were resuspended in lysis into 384-well plates at optimized density for individual buffer and kept at 4°C until assay. Assays for ATM and cell lines. Cells were then treated with compounds at ATR were conducted in a 33P radioactive assay format. increasing concentrations. GFP+ cells were imaged Assay buffer contained the following reagents: 1 mg/mL and quantitated using the IncuCyte (Essen Bioscience, GST-p53 (glutathione S-transferase–p53 fusion protein) Ann Arbor, MI). NHEJ activity was then normalized substrate (expressed in-house), 20 μg/mL calf thymus to the DMSO control and fitted to the Sigmoidal Dose-DNA activator (Sigma), 100 μg/mL BSA, 200 μM EGTA Response Model (IDBS XLFit Model 205; London, UK)

[1] = tested on: NHEJ in HCT116 colorectal cancer cells; test: 384-well image-based cellular NHEJ assay; assay type: cell-based; conditions: Homo sapiens, HCT-116; HCT116, n=3
From the text: as §1, §2, §3

[2] = tested on: NHEJ in MDA-MB-231 breast cancer cells; test: 384-well image-based cellular NHEJ assay; assay type: cell-based; conditions: Homo sapiens; MDA-MB-231, n=3
From the text: as §1, §2, §3

[3] = tested on: NHEJ in PC3 prostate cancer cells; test: 384-well image-based cellular NHEJ assay; assay type: cell-based; conditions: Homo sapiens; PC3, n=3
From the text: as §1, §2, §3

[4] = tested on: ATM-proficient cell lines (MDA-MB-231, MCF7, CAL51, HCC1937); test: Colony-formation assay; assay type: cell-based, human; conditions: versus ATM-deficient HCC1187
Description: MCF7, Cal51, MDA-MB-231, H1937, MDA-MB-175VII and HCC1187 human breast cancer cell lines were plated at 2000 cells per well in 6-well plates and HCC1500 breast cancer cell line was plated at 10,000 cells per well in 6-well plates and cultured overnight. Cells were then treated with compounds at indicated concentrations. Media and compounds were changed every three days. Plates were incubated for a total of about two weeks then fixed and stained using the DIFF QUIK staining kit (Microptic, Barcelona, Spain). Colonies were imaged and counted.

[5] = tested on: hematological and solid tumor cell lines; test: Caspase 3/7-Glo apoptosis assay; assay type: cell-based, human; conditions: 24 h, subset of hematological and solid tumor cell lines
Description: Proliferation assays were performed as previously described. […] The concentration of compound required for a 2-fold induction of Caspase was determined (CalX).

[6] = tested on: pATM S1981 and pNbs1 S343 in HT29 and MDA-MB-436 cells; test: Immunoblotting of intact cells with bleomycin; assay type: cell-based, human; conditions: 5 μM with 1.5 mU/mL bleomycin, 2 or 12 hours

SMILES: CCN1C(=O)CNc2ncc(-c3ccc(-c4nc[nH]n4)nc3C)nc21 [CC-115, 1-ethyl-7-(2-methyl-6-(1H-1,2,4-triazol-3-yl)pyridin-3yl)-3,4-dihydropyrazino[2,3-b]pyrazin-2(1H)-one]
- inhibition of NHEJ activity, cell-free (NHEJ activity; 0.5 μM): Partial inhibition
- inhibition of NHEJ activity, cell-free (NHEJ activity; 5 μM): complete inhibition
- IC50 (NHEJ in Cal-51 cells): 3150 ± 1330 nM
- IC50 [1]: 6350 ± 2980 nM
- IC50 [2]: 2160 ± 910 nM
- IC50 [3]: 2720 ± 1690 nM
- ATM-proficient cell lines less sensitive to inhibition of colony formation [4]: 100 fold
- apoptosis induction (Caspase 3/7) [5]: induced strong apoptosis
- ATM activity (pATM S1981 and pNbs1 S343) [6]: significantly inhibited
